In patent publication US20110212047A1, “Polymer Therapy for the Treatment of Chronic Microvascular Diseases” (Synth Rx, Inc., priority 2007, published 2011):

Test system: bilateral neovascular AMD with occult choroidal neovascularization
Assay: Treatment of a patient with bilateral neovascular AMD with occult choroidal neovascularization
Format: in vivo, human
Settings: after intravitreal injection to both eyes

pegaptanib was tested, and the “vision, left eye” value (20/80 before) was 20/100 and the “vision, right eye” value (CF at six feet before) was “CF at six feet”.
